Assay results as given in ChEMBL document CHEMBL3507680, “University of Dundee, Gates Library screen for HepG2 cell viability”.

Assay: Human HepG2 cell viability assay in 384 well format
Type: toxicity, cell-based
Parameters: dose 125 nL, time 70.5 hour; concentration not given beside the values
Conditions: HepG2 cells, read-out: Inhibition

SMILES	cytotoxicity at 70.5 h [%]
CN(C)S(=O)(=O)N1CCCCCC1c1cc(-c2ccc(F)cc2)no1 (stereo not given)	1.28
CS(=O)(=O)N1CCOC2(CCCC2)C1	-5.25
CC(C)CCN1CCN(c2ncnc3nc(N)ccc23)CC1	-2.35
Cc1ncnc(NCC(C)N(C)c2ccccc2)c1C (stereo not given)	29.1
Cc1cc(S(=O)(=O)NC(=O)CCc2cncc(F)c2)c(C)s1	-1.54
CC1CN(Cc2ccccc2)CCCN1CCS(C)(=O)=O (stereo not given)	-2.05
Cc1nc(CN(C)C2CCN(CC(=O)NC3CCOCC3)C2)no1 (stereo not given)	4.94
CCCc1nc(C)cc(N2CCC3(CCC(=O)N(CC(N)=O)C3)CC2)n1	-8.54
CC(O)CN1CCN(C(=O)c2ccc(Cn3cccn3)cc2)CC1 (stereo not given)	-7.08
CCCNC(=O)NC(=O)CN1CCN(Cc2nccn2CC)CC1	-9.22
Cc1cccc(CC(=O)N2CCCC(N(C)CCCN(C)C)C2)c1 (stereo not given)	-4.84
CC(C)C1=NOC2(CCN(S(C)(=O)=O)CC2)C1	-12.4
Cc1nn(C)cc1CN1CCc2c(nc(-c3ccccn3)[nH]c2=O)C1	-5.77
O=C(c1ccnnc1)N1CCc2onc(Cn3cccn3)c2C1	-3.08
O=C(CCc1cc2n(n1)CCCNC2)N1CCSCC1	-9.8
CN1CC2(CCCN(Cc3nnc(-c4ccco4)o3)CC2)OC1=O (stereo not given)	-0.887
Cc1ccc(C(=O)N2CCN(Cc3ccsc3)CC2)n1C	-7.84
COCCN(CCOC)C(=O)c1cnn(C)c1C	-10.4
COCCN(C)C(=O)c1cc2c(s1)CCN2C(=O)C1CC1	2.55
Cc1occc1C(=O)N1CCC2(CCCN(CC3CC3)C2=O)C1 (stereo not given)	-15
CCOc1ccccc1N1CCN(C(=O)NCc2cc[nH]n2)CC1	18.3
Cc1nc(C)n(C2CCCN(C(=O)c3cccc4cn[nH]c34)C2)n1 (stereo not given)	-13.2
COCCC(=O)N1CC[C@@H](N(C)C)[C@@H]1Cc1ccccc1	-3.88

SMILES	cytotoxicity at 70.5 h [%]
O=C(CN1CCc2[nH]c3ccccc3c2C1)NCc1ccco1	-10.8
COCC1CN(C(=O)c2ccnnc2)Cc2ncnn2C1 (stereo not given)	-3.33
COCCN1CCO[C@H]2CN(C(=O)c3cccs3)C[C@H]21	-7.52
CN(C)CCO[C@H]1CN(Cc2cccc(C#N)c2)[C@@H]2COC[C@H]12	-1.49
CC(C)c1cc(C(=O)NCC(O)C2CCOCC2)nn1C(C)(C)C (stereo not given)	1.71
COc1ccc(C(=O)N2C[C@@H](O)[C@H](NCc3ncccc3C)C2)cc1	-8.03
CC/C=C(/C)C(=O)NCc1ccnc(OC2CCOCC2)c1	-9.32
N#Cc1ccccc1N1CCCN(C(=O)CCc2cccs2)CC1	-8.79
CCC(C)CN1CCC(n2cc(C3CCCCC3)nn2)CC1 (stereo not given)	14.7
O=C(c1ccnnc1)N1C[C@H](Oc2cccnc2)[C@H]2OCCC[C@H]21	3.85
Cc1ccc(CN(C)C(=O)NCC(C)(C)S(C)(=O)=O)s1	-2.7
CCOC1COC2(CCN(S(=O)(=O)c3ccc(F)cc3)CC2)C1 (stereo not given)	-12.9
CC1CCN(CC(=O)N(Cc2ccccc2)Cc2nccs2)C1=O (stereo not given)	-11.6
CN(CCc1ccccn1)[C@@H]1CCN(c2cc(C(N)=O)ccn2)C[C@H]1O	-3.34
CC(C)[C@H](NC(=O)Cn1nc2c(cc1=O)CCCC2)C(=O)O	-4.44
CC(C)CC(C)(CNC(=O)c1cnccn1)NC(=O)c1cnccn1 (stereo not given)	-0.237
CCOC1CCN(C(=O)NCc2ccc(CN3CCOCC3)cc2)CC1	-9.89
Clc1cc(NCc2ccncc2)nc2[nH]ccc12	13
CCn1cnnc1C1CCN(C(=O)c2cccc3c2ccn3C)CC1	6.06
CC(=O)Nc1cccc(C(=O)N(C)C(C)Cc2cc(C)ccn2)c1 (stereo not given)	-2.97
Cc1noc(CCNC(=O)NCC(=O)NCc2ccccc2)n1	-4.83
Cn1cc(C#N)cc1C(=O)N1CCC2(CCCN(CC3CCC3)C2=O)C1 (stereo not given)	-4.46
CN(CCC#N)C(=O)CN1CCC(c2cc3ccccc3[nH]2)CC1	4.21

SMILES	cytotoxicity at 70.5 h [%]
CC(=O)N1CCCC1c1nnn2cc(-c3ccncc3)ccc12 (stereo not given)	-5.32
COc1cccc(NC(=O)NCC(C)(O)CCSC)c1OC (stereo not given)	-8.28
CCc1n[nH]c(C2CN(C(=O)COCC(F)(F)F)CCO2)n1 (stereo not given)	-10.6
COCCOCC(=O)N1C[C@H]2CC[C@@H]1CN(C1Cc3ccccc3C1)C2	-9.96
COCc1c(C(=O)N2CCCC(C(=O)c3ccccc3)C2)noc1C (stereo not given)	-3.85
c1coc(CN2CCCn3c(nnc3Cn3cccn3)C2)c1	3.11
Cc1nn(C(C)C)c(C)c1NC(=O)c1ccccc1	-0.962
Cc1cc(CN(C)C(=O)c2ccc(C(F)(F)F)nc2)no1	-19.6
CCN(CC1CCOC1)C(=O)c1cc(OC)c2c(c1)OCCO2 (stereo not given)	0.516
CC(C)n1ccnc1C1CCCN(Cc2ccc(F)c(F)c2)C1 (stereo not given)	38
COCCOc1ccc(NC(=O)N2CCCC2c2cccs2)cn1 (stereo not given)	-4.81
CNS(=O)(=O)CCCN(C)Cc1cc(C)ccc1OC	-13.2
O=C(c1cccnc1)N1CCCC2(CCN(c3ccsc3)C2=O)C1 (stereo not given)	13.9
c1cc(CNCc2ccnc(N3CCCC3)c2)c2c(c1)OCCO2	5.3
O=C(C[C@@H]1COC[C@H]2CN(Cc3cccnc3)C[C@@H]12)NCC1CC1	-4.39
CC[C@H]1CN2CC[C@H]1C[C@@H]2CNC(=O)c1ccco1	-1.78
COc1ccc(Oc2ccc(C(F)(F)F)cn2)cc1CN1CCCC1	-11.6
CN(C)C1COC2(CCN(C(=O)c3cccnc3)CC2)C1 (stereo not given)	-6.03
CCOCC(=O)NC1(c2cccc(Cl)c2)CC1	-8.22
Cc1nc(CCNCc2c(C)nn(C)c2N2CCOCC2)cs1	-0.903
CC(C)NC(=O)c1nnn(-c2ccc(F)cc2)c1C1CC1	-4.05
Cc1cn(CC(=O)NC2CCN(S(C)(=O)=O)CC2)c2ccccc12	-4.04
CC(=O)NCCc1ccc(S(=O)(=O)N(C)C(C)C(C)(C)C)s1 (stereo not given)	-9.01

SMILES	cytotoxicity at 70.5 h [%]
COc1ccccc1C(=O)N1CCNCC1C(N)=O (stereo not given)	-2.25
CCCn1nc2c(cc1=O)CN(CC(=O)Nc1ccncc1)CC2	-17.2
CNC(=O)c1cccc(CCNc2ccc(C#N)cn2)c1	0.174
Cc1cc2n(n1)[C@@H](C(F)(F)F)C[C@@H](C1CCN(C(=O)C3CC3)CC1)N2	-2.95
O=C(Nc1ccc(-c2ccccc2)cc1)N1C[C@@H]2CNC[C@]2(C(=O)O)C1	-9.81
CCc1nc(CN2CCCN(C(=O)c3ccccc3)CC2)cs1	-1.48
CCS(=O)(=O)c1ccccc1C(=O)NCC1Cc2ccccc2O1 (stereo not given)	-3.88
CN(C)S(=O)(=O)N1CCCC1c1cccc(-n2ccnc2)n1 (stereo not given)	-4.96
COc1cccc(C2CCN2C(=O)c2cnccn2)c1 (stereo not given)	-2.61
COc1c(C2CCCN2C(=O)c2nccnc2N)c(C)nn1C (stereo not given)	-13
CS(=O)(=O)c1cc(Cl)cnc1C1CCN(C(=O)C2CCCO2)CC1 (stereo not given)	-5.11
CN(C)C(=O)CN1CCC2(CCN(Cc3nccs3)CC2)C1=O	16.1
CN(C)S(=O)(=O)c1ccc(CNC(=O)c2cn3c(n2)CNCC3)cc1	14.9
CCN(C)C(=O)C1(c2ccc(F)cc2F)CCC1	4.95
O=C1CN(Cc2nnc(-c3ccc(Br)o3)o2)CCN1	-7.06
Cc1cc(N2CCc3c(ncn3C)C2)n2nc(C(F)(F)F)nc2n1	-105
CC(C)(C(=O)NCC(=O)NC1CC1)c1ccccc1F	2.62
CC1CCN(c2ccc(NC(=O)CCn3cccn3)cc2)CC1	-9.93
COC[C@@H]1CCCN1C(=O)c1cc(-c2ccc(OC)cc2)n[nH]1	-7.57
Cc1cnn(C2CN(Cc3nc(-c4ccsc4)no3)C2)c1	-8.74
COc1ccc(Cl)cc1C(=O)N1CCCC(n2nc(C)nc2C)C1 (stereo not given)	27.7
c1ccc(CN2CCC3(CC2)CN(c2ccccn2)CCO3)nc1	-5.77
COc1ccccc1C(=O)C1CCCN(c2cc(C#N)ccn2)C1 (stereo not given)	-1.63

SMILES	cytotoxicity at 70.5 h [%]
CC(C)N1CCC(CC(=O)NCCc2cc(O)ncn2)CC1	-11.7
COCC(NC1CSCCSC1)c1ccnn1C (stereo not given)	-13.2
CCCC(C)Sc1nnnn1C1CCOCC1 (stereo not given)	-12.8
CC(OCC1CC1)C(=O)Nc1ncccc1I (stereo not given)	-6.4
O=C(NCc1nn(-c2ccccc2)c2c1CCC2)N1CCCC(O)C1 (stereo not given)	-12.1
N#CCCN(CCN1CCOCC1)Cc1ccc(F)c(Br)c1	-3.12
CC(C)(NC(=O)NCc1cccc(Br)c1)C(=O)O	-9.51
FC(F)(F)c1ccc(-n2ccnc2-c2cc3n(n2)CCNC3)cn1	12.7
COc1cccc(NC(=O)N2CCC(O)(C(F)(F)F)C2)c1 (stereo not given)	-2.52
COc1cccc(C(=O)NCC(O)c2cccs2)c1 (stereo not given)	-0.864
CN(C)C(=O)CN1CCO[C@H]2CN(Cc3cccc(F)c3)C[C@H]21	-8.07
c1cnc(NCc2nnn3c2CN(Cc2ccsc2)CCC3)nc1	-118
Cc1ccc(C(=O)N(Cc2cccc(F)c2)C2CC2)c(=O)[nH]1	-2.11
CCN(Cc1cccnc1)CC1(C)Cc2c(N)nc(N)nc2O1 (stereo not given)	-1.96
CNc1ncc(CN(C)CCN2CCCCC2)cn1	36.6
CNC(=O)CCNC(=O)c1cc(Br)c2c(c1)OCCO2	-6.67
CC(=O)N1CC[C@H](c2nnc(Cc3c[nH]c4ccccc34)o2)C1	-3.38
CC(C)NC(=O)c1ccc2c(c1)nc1n2CCN(c2ccccc2)C1	-11.7
CCOC(=O)NCc1nn(CCN2CCCC2)c(=O)c2ccccc12	1.9
CC(=O)N(C)CC(=O)NC(CC(C)C)c1cccs1 (stereo not given)	-5.7
N#Cc1ccc(OCCNCCn2cccn2)cc1	-10.2
CCc1nnc(CN2CCC3(CC2)Nc2ccccc2NC3=O)o1	19.8
Cn1c(CCC(=O)N2CCCC3(CC2)CNC(=O)O3)nc2cccnc21 (stereo not given)	44
